Several values for one entry are separate records, joined by “and”; a condition that tells them apart may be missing. Equal values may be shown once. Read-outs that look alike come from different tables or passages of the source.
Columns and labels:
rNTS2 receptor [1] = biological target: T1, rNTS2 receptor (Rattus norvegicus, UniProt Q63384); assay: Calcium mobilization assay for NTS2 receptor (FLIPR Tetra); assay type: cell-based; conditions: FLIPR assay, ± SEM; for NTS2 Emax % of 5b: calcium release relative to 5b; for EC50: compound induced calcium release, CHO-kl-rNTS2 cells
T1 construct: expressed in transfected cells
T1 sequence (Q63384 1-416): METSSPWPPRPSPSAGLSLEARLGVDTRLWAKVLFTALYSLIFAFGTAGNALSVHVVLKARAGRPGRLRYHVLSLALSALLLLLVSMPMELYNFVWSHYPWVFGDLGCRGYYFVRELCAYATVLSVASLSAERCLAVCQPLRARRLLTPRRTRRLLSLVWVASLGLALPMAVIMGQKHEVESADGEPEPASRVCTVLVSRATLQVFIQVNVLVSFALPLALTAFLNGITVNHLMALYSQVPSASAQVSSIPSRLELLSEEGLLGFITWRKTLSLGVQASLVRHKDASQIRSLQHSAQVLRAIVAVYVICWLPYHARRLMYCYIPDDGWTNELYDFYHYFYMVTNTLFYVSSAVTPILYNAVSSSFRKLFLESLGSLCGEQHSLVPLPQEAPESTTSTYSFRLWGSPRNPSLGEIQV
Protocol: (§1) The binding affinities of the test compounds for the rNTS1 and rNTS2 receptors listed in Tables 1 through 4 were determined using previously reported competitive binding assays^49. […] The cells used in the binding assay were CHO-kl cells (American Type Culture Collection) engineered to over-express either the rNTS1 or rNTS2 receptor. Measures of functional agonism and antagonism were obtained by measuring changes in intensity of a calcium-sensitive fluorescent dye as an indirect measure of changes in internal calcium concentrations. These measurements were performed using a FLIPR Tetra (NTS2) or a FlexStation II plate reader for NTS1 (Molecular Devices) and were analyzed using GraphPad Prism software.
CHO-kl-rNTS2 cells were maintained in DMEM/F12 supplemented with 10% FBS, pen/strep, 100 μg/ml normocin, and 400 μg/ml geneticin. For calcium mobilization assays, cells were plated at 25,000 cells/well in black, clear-bottom 96-well plates 24 hrs before the assay and incubated at 37° C., 5% CO2. 100 μl reconstituted Calcium 5 dye (Molecular Devices, diluted 1:20 in assay buffer (1×HBSS, 20 mM HEPES, 2.5 mM Probenicid, pH 7.4)) was added per well and plates were incubated for 45 min at 37° C., 5% CO2. […] Full-log serial dilutions of the test compounds were made at 10× the desired final concentration in 1% DMSO assay buffer and warmed to 37° C. After the pre-treatment incubation, fluorescence intensity was measured on a FLIPR Tetra fluorometric imaging plate reader (Molecular Devices). Relative Fluorescence Units (RFUs) were measured every second for 100 seconds (14 readings before compound addition to establish baseline fluorescence, 85 after) Exposure time 0.53 s, Gain=2000, Excitation intensity=30%, Gate open=10%. For antagonist assays, 1/10 volume of 10×concentration of the test compound dilutions in 10% DMSO in assay buffer was added to cells in lieu of the 10% DMSO only in assay buffer for the pre-treatment.
(§2) To determine EC50, IC50, and Ke values, data were fit to a three-parameter logistic equation using GraphPad Prism software. Ki values for radioligand binding assays were determined from ICso values using the equation of Cheng and Prusoff. All data are from at least three independent experiments run in duplicate wells.

rNTS2 receptor [2] = biological target: T1, rNTS2 receptor; assay: 125I-NT competitive binding assay, whole CHO-kl cells over-expressing rNTS2; conditions: for Ki: competition with 125I-NT, ± SEM, read-out: 125I-NT Binding NTS2 Ki; for NTS2/NTS1 selectivity ratio: ratio of 125I-NT binding Ki at NTS1 and NTS2; for selectivity for NTS2 (versus NTS1): relative binding affinities at NTS1 and NTS2
Protocol: as §1
Briefly, cells were plated at 100,000 cells/well in 24-well plates in complete DMEM/F12 medium supplemented with 10% fetal bovine serum, 100 units of penicillin/mL, 100 μg of streptomycin/mL, 0.1 mg/mL of normocin, and 250 μg/mL geneticin. Cells were incubated at 37° C. with 5% CO2 and 95% humidity for 48 hrs. […] Cells were washed twice in Earle's buffer, extracted in 1 ml 0.1N NaOH and counted in a Packard Cobra II Gamma Counter for 1 minute.
as §2

rNTS1 receptor [3] = biological target: T2, rNTS1 receptor (Rattus norvegicus, UniProt P20789); assay: 125I-NT competitive binding assay, whole CHO-kl cells over-expressing rNTS1; conditions: competition with 125I-NT, read-out: NTS1 Ki
T2 construct: expressed in transfected cells
Protocol: The binding affinities of the test compounds for the rNTS1 and rNTS2 receptors listed in Tables 1 through 4 were determined using previously reported competitive binding assays^49. The NTS1 and 2 receptors were labeled using ^125I-NT. The cells used in the binding assay were CHO-kl cells (American Type Culture Collection) engineered to over-express either the rNTS1 or rNTS2 receptor. Measures of functional agonism and antagonism were obtained by measuring changes in intensity of a calcium-sensitive fluorescent dye as an indirect measure of changes in internal calcium concentrations. These measurements were performed using a FLIPR Tetra (NTS2) or a FlexStation II plate reader for NTS1 (Molecular Devices) and were analyzed using GraphPad Prism software. Antagonism was measured as inhibition of NT-induced calcium release (NTS1) or inhibition of SR142948 (5b)-induced calcium release (NTS2).
Briefly, cells were plated at 100,000 cells/well in 24-well plates in complete DMEM/F12 medium supplemented with 10% fetal bovine serum, 100 units of penicillin/mL, 100 μg of streptomycin/mL, 0.1 mg/mL of normocin, and 250 μg/mL geneticin. Cells were incubated at 37° C. with 5% CO2 and 95% humidity for 48 hrs. Cells were then equilibrated for 10 minutes in Earle's buffer (130 mM NaCl, 5 mM KCl, 1.8 mM CaCl2, 0.8 mM MgCl2, and 20 mM HEPES, pH 7.4) supplemented with 0.1% BSA and 0.1% glucose, and then incubated with or without 10 nM test compound in 0.1 nM ^125I-NT at 37° C. for 30 min. Cells were washed twice in Earle's buffer, extracted in 1 ml 0.1N NaOH and counted in a Packard Cobra II Gamma Counter for 1 minute.
as §2

NTS2 versus NTS1 = conditions: literature report; cited from earlier work
[4] = literature report; cited from earlier work
rNTS1 receptor [5] = biological target: T2, rNTS1 receptor; assay: Calcium mobilization assay for NTS1 receptor (FLIPR assay, FlexStation II); assay type: cell-based; conditions: for Kb: antagonism of NT induced calcium release, ± SEM, read-out: NTS1 Ke
Protocol: as §1
CHO-kl-rNTS1 cells were maintained in DMEM/F12 medium supplemented with 10% fetal bovine serum (Gibco), 100 U/ml penicillin/100 ug/ml streptomycin, 100 ug/ml normocin (Invivogen), and 250 ug/ml geneticin. For calcium mobilization assays, cells were plated at 30,000 cells/well in black, clear-bottom 96-well plates 24 hrs before the assay and incubated at 37° C., 5% CO2. Prior to the assay, Calcium 5 dye (Molecular Devices) was reconstituted according to manufacturer instructions. The reconstituted dye was diluted 1:40 in assay buffer (lx HBSS, 20 mM HEPES, and 2.5 mM Probenicid (Sigma), pH 7.4). Growth media was removed and 200 ul of this diluted dye was added to each well. Plates were incubated for 45 min at 37° C., 5% CO2 after dye addition. […] Full-log serial dilutions of the test compounds were made at 10× the desired final concentration in 1% DMSO assay buffer and warmed to 37° C. After the pre-treatment incubation, fluorescence intensity was measured on a FlexStation II fluorometric imaging plate reader (Molecular Devices). Relative fluorescence units (RFU) were measured before (20 readings) and after (40 readings) the agonist compound addition for a total 60 second read time (Excitation=485 nm, Emission=525 nm, cutoff=515 nm). For antagonist assays, cells were treated with Calcium dye for 45 min at 37° C., 5% CO2 as with the agonist assays. Then the test antagonist compounds were added in 1% DMSO in assay buffer and the plate was incubated for 15 min at 37° C., 5% CO2.
as §2

T2 sequence (P20789 whole entry): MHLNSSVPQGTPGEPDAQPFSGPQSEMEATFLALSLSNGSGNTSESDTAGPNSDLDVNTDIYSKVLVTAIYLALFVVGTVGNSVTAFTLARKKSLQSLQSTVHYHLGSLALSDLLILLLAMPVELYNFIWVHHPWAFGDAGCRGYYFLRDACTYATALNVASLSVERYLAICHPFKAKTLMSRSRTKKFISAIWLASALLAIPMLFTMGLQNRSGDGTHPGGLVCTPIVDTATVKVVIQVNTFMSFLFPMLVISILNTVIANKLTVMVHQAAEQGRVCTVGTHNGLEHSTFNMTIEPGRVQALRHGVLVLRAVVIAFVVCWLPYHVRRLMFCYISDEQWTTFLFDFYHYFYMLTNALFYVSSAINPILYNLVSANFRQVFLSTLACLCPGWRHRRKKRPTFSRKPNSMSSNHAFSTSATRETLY

Compound	NTS2 Emax % of 5b (rNTS2 receptor [1])	EC50 (rNTS2 receptor [1]) [nM]	Ki (rNTS2 receptor [2]) [nM]	Kb (rNTS1 receptor [5]) [nM]	also measured
COc1ccccc1-c1cc(C(=O)NC2(C(=O)O)CCCCC2)nn1-c1ccc(F)cc1 [7b, 1-({[1-(4-Fluorophenyl)-5-(2-methoxyphenyl)-1H-pyrazol-3-yl]carbonyl}amino)cyclo-hexane carboxylic Acid]	7 ± 2 % of 5b	12 ± 6	153 ± 10		NTS2/NTS1 selectivity ratio (rNTS2 receptor [2]): 161; selectivity for NTS2 (versus NTS1) (rNTS2 receptor [2]): 161 fold; Ki (rNTS1 receptor [3]; bound given in uM): > 25 µM
Arg-Arg-Pro-N-homo-Tyr-Ile-Leu [4a]					selectivity for NTS2 (versus NTS1) (NTS2 versus NTS1): 12,000 fold
(N^αMe)Arg-Lys-Pro-N-homo-Tyr-Ile-Leu [4b]					selectivity for NTS2 (versus NTS1) (NTS2 versus NTS1): 22,000 fold; plasma stability [4]: excellent plasma stability
COc1ccccc1-c1cc(C(=O)NC2(C(=O)O)C3CC4CC(C3)CC2C4)nn1-c1ccc(F)cc1 (stereo not drawn) [compound 31, 2-({[1-(4-fluorophenyl)-5-(2-methoxyphenyl)-1H-pyrazol-3-yl]carbonyl}amino)tricyclo[3.3.1.13,7]decane-2-carboxylic acid]	42 ± 12 % of 5b	138 ± 55	23 ± 5	3810 ± 422	NTS2/NTS1 selectivity ratio (rNTS2 receptor [2]): 188; Ki (rNTS1 receptor [3]; ± SEM): 4.33 ± 0.656 µM
(N^αMe)Arg-Lys-Pro-D-3,1-Nal-tLeu-Leu [compound 3]					selectivity for NTS2 (versus NTS1) (NTS2 versus NTS1): > 100 fold
COc1cccc(OC)c1-c1cc(C(=O)NC2(C(=O)O)CCCC2)nn1-c1ccnc2cc(Cl)ccc12 [22b, 1-({[1-(7-Chloroquinolin-4-yl)-5-(2,6-dimethoxyphenyl)-1H-pyrazol-3-yl]carbonyl}amino)cyclo-pentanecarboxylic Acid]	76 ± 4 % of 5b	20 ± 4	102	222 ± 14	
C[C@@H]1CN([C@H]2CC[C@](C#N)(c3ccc(F)cc3)CC2)CC[C@]1(C(=O)O)c1ccccc1 [compound 6, Levocabastine, reference compound]	16 % of 5b and 16 ± 3 % of 5b	28	33		activity in NTS1 FLIPR assay (rNTS1 receptor [5]; agonist and antagonist mode versus NT): neither agonist nor antagonist activity
COc1cccc(OC)c1-c1cc(C(=O)N[C@H](C(=O)O)C2CCCCC2)nn1-c1cccc2ccccc12 [24b, (2S)-Cyclohexyl({[5-(2,6-dimethoxyphenyl)-1-naphthalen-1-yl-1H-pyrazol-3-yl]carbonyl}amino)-ethanoic Acid]	45 % of 5b and 45 ± 1 % of 5b	159 ± 9	536 ± 20	58 ± 6	
COc1cccc(OC)c1-c1cc(C(=O)NC2(C(=O)O)CCCCC2)nn1-c1cccc2ccccc12 [26b, 1-({[5-(2,6-Dimethoxyphenyl)-1-naphthalen-1-yl-1H-pyrazol-3-yl]carbonyl}amino)cyclohexane-carboxylic Acid]	35 % of 5b and 35 ± 1 % of 5b	18 ± 1.6	116 ± 39	230 ± 79	
COc1cccc(OC)c1-c1cc(C(=O)N[C@H](C(=O)O)C2CCCCC2)nn1-c1ccnc2cc(Cl)ccc12 [14b, (2S)-({[1-(7-Chloroquinolin-4-yl)-5-(2,6-dimethoxyphenyl)-1H-pyrazol-3-yl]carbonyl}amino)-(cyclohexyl)ethanoic Acid]	86 % of 5b and 86 ± 3 % of 5b	217 ± 19	644	23 ± 6	
COc1cccc(OC)c1-c1cc(C(=O)NC2(C(=O)O)CCCCC2)nn1-c1ccc(F)cc1 [29b, 1-({[5-(2,6-Dimethoxyphenyl)-1-(4-fluorophenyl)-1H-pyrazol-3-yl]carbonyl}amino)cyclohexane-carboxylic Acid]	12 ± 0.5 % of 5b	19 ± 3	140 ± 29		NTS2/NTS1 selectivity ratio (rNTS2 receptor [2]): 23; selectivity for NTS2 (versus NTS1) (rNTS2 receptor [2]): 23 fold; Ki (rNTS1 receptor [3]; ± SEM): 3.21 ± 0.879 µM
